Data reported in ChEMBL document CHEMBL1130086, “Potent HIV protease inhibitors containing a novel (hydroxyethyl)amide isostere” (J Med Chem, 1997).

Tests used:
[1] = biological target: T1, Human immunodeficiency virus type 1 protease (Human immunodeficiency virus 1, UniProt Q72874); test: Inhibitory concentration against recombinant HIV-1 protease expressed in Escherichia coli was tested by HPLC based assay
[2] = test system: Human immunodeficiency virus 1; test: Inhibitory concentration against HIV-1 strain 111B in acutely infected C8166 T cells; type: functional, organism-based; conditions: Human immunodeficiency virus 1, C8166
[3] = biological target: T1, Human immunodeficiency virus type 1 protease; test: binding affinity against HIV-1 protease
[4] = biological target: T1, Human immunodeficiency virus type 1 protease; test: binding affinity against HIV-1 111B strain in protease
[5] = biological target: T1, Human immunodeficiency virus type 1 protease; test: Inhibitory concentration against recombinant HIV-1 111B protease expressed from Escherichia coli was tested by HPLC based assay
C8166 = test: Inhibitory concentration against HIV-2 rod strain in acutely infected C8166 T cells; type: functional, cell-based; conditions: Homo sapiens

Row | Compound | IC50 [1] [nM] | EC50 [2] [nM] | further results
1 | CCC(CC)NC(=O)C[C@@H](C(=O)NC[C@@H](O)[C@H](Cc1ccccc1)NC(=O)[C@@H](NC(=O)OCc1ccccc1)C(C)C)C(C)(C)C | 2.9 | 9.3 | 
2 | CCC(CC)NC(=O)C[C@@H](C(=O)NC[C@@H](O)[C@H](Cc1ccccc1)NC(=O)[C@H](CC(N)=O)NC(=O)c1cnc2ccccc2n1)C(C)(C)C | 1.9 | 35 | 
3 | CC(C)C(NC(=O)C[C@@H](C(=O)NC[C@@H](O)[C@H](Cc1ccccc1)NC(=O)OCc1ccccc1)C(C)(C)C)C(C)C | 58 |  | 
4 | CCC(CC)NC(=O)C[C@@H](C(=O)NC[C@@H](O)[C@H](Cc1ccccc1)NC(=O)[C@@H](NC(=O)c1cnc2ccccc2n1)[C@H](C)O)C(C)(C)C | 3 | 13 | 
5 | CC(C)[C@H](NC(=O)OCc1ccccc1)C(=O)N[C@@H](Cc1ccccc1)[C@@H](O)CNC(=O)[C@H](CC(=O)NC(C)(C)C)C(C)(C)C | 50 |  | 
6 | CC(C)(C)[C@@H](CC(=O)Nc1ccccc1)C(=O)NC[C@@H](O)[C@H](Cc1ccccc1)NC(=O)OCc1ccccc1 | 14 |  | 
7 | CCC(CC)NC(=O)C[C@@H](C(=O)NC[C@@H](O)[C@H](Cc1ccccc1)NC(=O)[C@H](CC(N)=O)NC(=O)OCc1ccccc1)C(C)(C)C | 3.8 | 127 | 
8 | CC(C)[C@H](NC(=O)OCc1ccccc1)C(=O)N[C@@H](Cc1ccccc1)[C@H](O)CNC(=O)[C@H](CC(=O)NC(C)(C)C)C(C)(C)C | 3 | 15 | 
9 | CCC(CC)NC(=O)C[C@@H](C(=O)NC[C@@H](O)[C@H](Cc1ccccc1)NC(=O)[C@@H](NC(=O)c1ccc2ccccc2n1)[C@H](C)O)C(C)(C)C | 3.6 | 7 | 
10 | CCC(CC)NC(=O)C[C@@H](C(=O)NC[C@@H](O)[C@H](Cc1ccccc1)NC(=O)[C@@H](NC(=O)c1ccc2ccccc2n1)C(C)C)C(C)(C)C | 2.5 | 3.7 | Ki [3]: 0.0075 nM
11 | CC(C)[C@H](NC(=O)OCc1ccccc1)C(=O)N[C@@H](Cc1ccccc1)[C@H](O)CNC(=O)[C@@H](CC(=O)NC(C)(C)C)C(C)(C)C | 25 |  | 
12 | CC(C)[C@H](NC(=O)OCc1ccccc1)C(=O)N[C@@H](Cc1ccccc1)[C@H](O)CNC(=O)C1CCCC[C@H]1C(=O)NC(C)(C)C (some centres undefined) | 140 |  | 
13 | CC(C)[C@H](NC(=O)OCc1ccccc1)C(=O)N[C@@H](Cc1ccccc1)[C@H](O)CNC(=O)C[C@@H](C(=O)NC(C)(C)C)C(C)(C)C | 125 |  | 
14 | CC(C)NC(=O)C[C@@H](C(=O)NC[C@@H](O)[C@H](Cc1ccccc1)NC(=O)OCc1ccccc1)C(C)(C)C | 19 |  | 
15 | CC(C)[C@H](NC(=O)c1ccc2ccccc2n1)C(=O)N[C@@H](Cc1ccccc1)[C@H](O)CN1CC[C@@H](OCc2ccncc2)C[C@H]1C(=O)NC(C)(C)C |  | 5 | Ki [4]: 0.031 nM; IC50 [5]: 4 nM; EC50 (C8166): 25 nM
16 | CC(C)[C@H](NC(=O)OCc1ccccc1)C(=O)N[C@@H](Cc1ccccc1)[C@H](O)CN1CCCC[C@H]1C(=O)NC(C)(C)C | 62 |  | 
17 | CC(C)(C)NC(=O)C[C@@H](C(=O)NC[C@@H](O)[C@H](Cc1ccccc1)NC(=O)OCc1ccccc1)C(C)(C)C | 19 |  | 
18 | CC(C)[C@H](NC(=O)OCc1ccccc1)C(=O)N[C@@H](Cc1ccccc1)[C@H](O)CNC(=O)CCC(=O)NC(C)(C)C | 8250 |  | 
19 | CCC(CC)NC(=O)C[C@@H](C(=O)NC[C@@H](O)[C@H](Cc1ccccc1)NC(=O)[C@H](CC(N)=O)NC(=O)c1ccc2ccccc2n1)C(C)(C)C | 2.2 | 11 | 
20 | CCC(CC)NC(=O)C[C@@H](C(=O)NC[C@@H](O)[C@H](Cc1ccccc1)NC(=O)[C@@H](NC(=O)OCc1ccccc1)[C@H](C)O)C(C)(C)C | 8.2 | 165 | 
21 | CCC(CC)NC(=O)C[C@@H](C(=O)NC[C@@H](O)[C@H](Cc1ccccc1)NC(=O)OCc1ccccc1)C(C)(C)C | 15 |  | 
22 | CCCC(CCC)NC(=O)C[C@@H](C(=O)NC[C@@H](O)[C@H](Cc1ccccc1)NC(=O)OCc1ccccc1)C(C)(C)C | 39 |  | 
23 | CC(C)[C@H](NC(=O)OCc1ccccc1)C(=O)N[C@@H](Cc1ccccc1)[C@H](O)CNC(=O)C[C@H](C(=O)NC(C)(C)C)C(C)(C)C | 4850 |  | 
24 | CCC(CC)NC(=O)C[C@@H](C(=O)NC[C@@H](O)[C@H](Cc1ccccc1)NC(=O)[C@@H](NC(=O)c1cnc2ccccc2n1)C(C)C)C(C)(C)C | 2.2 | 5.8 | 
25 | CC(C)(C)[C@@H](CC(=O)NC1CCCCC1)C(=O)NC[C@@H](O)[C@H](Cc1ccccc1)NC(=O)OCc1ccccc1 | 135 |  | 
